Results: the NIST ThermoML archive (doi:10.1021/acs.jced.7b00035)
Values joined by “and” are separate entries in the source; they are usually repeats but may differ in a detail not shown here. Identical values can stand only once.

Experiments:
[1] = xn = mol fraction of the nth substance listed; conditions: 100 kPa, Liquid, Vibrating tube method
[2] = excess molar enthalpy (molar enthalpy of mixing); xn = mol fraction of the nth substance listed; conditions: 100 kPa, Liquid, Flow calorimetry
[3] = 101.33 kPa, Liquid, Vibrating tube method

CCCCC(C)=O [2-hexanone] + O
Conditions	excess molar enthalpy, [2]	mass density, [1]
288.15 K, x1 = 0.00087	-0.00256 kcal/mol and -0.00254 kcal/mol	998.466 kg/m3 and 998.439 kg/m3
288.15 K, x1 = 0.00116	-0.00343 kcal/mol and -0.00339 kcal/mol	998.248 kg/m3 and 998.255 kg/m3
288.15 K, x1 = 0.00145	-0.00423 kcal/mol and -0.00421 kcal/mol	998.054 kg/m3
288.15 K, x1 = 0.001739	-0.00503 kcal/mol and -0.00504 kcal/mol	997.852 kg/m3 and 997.853 kg/m3
298.15 K, x1 = 0.000869	-0.00197 kcal/mol	996.347 kg/m3
298.15 K, x1 = 0.00087	-0.00198 kcal/mol	996.364 kg/m3
298.15 K, x1 = 0.001159	-0.00264 kcal/mol	996.128 kg/m3
298.15 K, x1 = 0.00116	-0.00262 kcal/mol	996.137 kg/m3
298.15 K, x1 = 0.001448	-0.00321 kcal/mol	995.926 kg/m3
298.15 K, x1 = 0.00145	-0.00329 kcal/mol	995.903 kg/m3
298.15 K, x1 = 0.001737	-0.00394 kcal/mol	995.664 kg/m3
298.15 K, x1 = 0.00174	-0.0039 kcal/mol	995.681 kg/m3
308.15 K, x1 = 0.000869	-0.00138 kcal/mol	993.309 kg/m3 and 993.32 kg/m3
308.15 K, x1 = 0.001158	-0.0018 kcal/mol	993.074 kg/m3
308.15 K, x1 = 0.001159	-0.00181 kcal/mol	993.08 kg/m3
308.15 K, x1 = 0.001447	-0.00226 kcal/mol	992.84 kg/m3
308.15 K, x1 = 0.001448	-0.00224 kcal/mol	992.834 kg/m3
308.15 K, x1 = 0.001735	-0.00273 kcal/mol	992.573 kg/m3
308.15 K, x1 = 0.001737	-0.00273 kcal/mol	992.571 kg/m3
318.15 K, x1 = 0.000868	-0.000825 kcal/mol	989.45 kg/m3
318.15 K, x1 = 0.000869	-0.000817 kcal/mol	989.446 kg/m3
318.15 K, x1 = 0.00087	-0.000813 kcal/mol	989.455 kg/m3
318.15 K, x1 = 0.001158	-0.0011 kcal/mol	989.173 kg/m3
318.15 K, x1 = 0.001159	-0.00111 kcal/mol and -0.00109 kcal/mol	989.168 kg/m3 and 989.197 kg/m3
318.15 K, x1 = 0.001447	-0.00133 kcal/mol	988.934 kg/m3
318.15 K, x1 = 0.001448	-0.00135 kcal/mol and -0.00132 kcal/mol	988.931 kg/m3 and 988.956 kg/m3
318.15 K, x1 = 0.001736	-0.00161 kcal/mol	988.678 kg/m3
318.15 K, x1 = 0.001737	-0.00162 kcal/mol and -0.00165 kcal/mol	988.651 kg/m3 and 988.636 kg/m3

CCCCC(C)=O [2-hexanone]
[3]
Conditions	mass density [kg/m3]
288.15 K	815.72
298.15 K	806.7
308.15 K	797.6
318.15 K	788.45

CCC(=O)CC [pentan-3-one]
[3]
Conditions	mass density [kg/m3]
288.15 K	818.9
298.15 K	809.16
308.15 K	799.32
318.15 K	789.41

CC(=O)CC(C)C [4-methylpentan-2-one]
[3]
Conditions	mass density [kg/m3]
288.15 K	805.12
298.15 K	795.98
308.15 K	786.75
318.15 K	777.46

CCCC(C)=O [pentan-2-one]
[3]
Conditions	mass density [kg/m3]
288.15 K	811.06
298.15 K	801.41
308.15 K	791.66
318.15 K	781.83

CC(=O)C(C)C [3-methyl-2-butanone]
[3]
Conditions	mass density [kg/m3]
288.15 K	808.3
298.15 K	798.51
308.15 K	788.6
318.15 K	778.62
